Data on 1 compound can be found in paper PMC10174618, “Monoterpenoid aryl hydrocarbon receptor allosteric antagonists protect against ultraviolet skin damage in female mice” (Nature Communications, 2023).

Holding throughout (assay): biochemical
Common to all, as to set-up: KINOMEscan scanMAX active site-directed competition binding assay, percent of control, 468 kinases
Holding throughout (details): competition binding, percent of control

In one assay the target is T1, SIK (Homo sapiens, UniProt P57059).
T1 construct: gene SIK1
T1 sequence (P57059 whole entry): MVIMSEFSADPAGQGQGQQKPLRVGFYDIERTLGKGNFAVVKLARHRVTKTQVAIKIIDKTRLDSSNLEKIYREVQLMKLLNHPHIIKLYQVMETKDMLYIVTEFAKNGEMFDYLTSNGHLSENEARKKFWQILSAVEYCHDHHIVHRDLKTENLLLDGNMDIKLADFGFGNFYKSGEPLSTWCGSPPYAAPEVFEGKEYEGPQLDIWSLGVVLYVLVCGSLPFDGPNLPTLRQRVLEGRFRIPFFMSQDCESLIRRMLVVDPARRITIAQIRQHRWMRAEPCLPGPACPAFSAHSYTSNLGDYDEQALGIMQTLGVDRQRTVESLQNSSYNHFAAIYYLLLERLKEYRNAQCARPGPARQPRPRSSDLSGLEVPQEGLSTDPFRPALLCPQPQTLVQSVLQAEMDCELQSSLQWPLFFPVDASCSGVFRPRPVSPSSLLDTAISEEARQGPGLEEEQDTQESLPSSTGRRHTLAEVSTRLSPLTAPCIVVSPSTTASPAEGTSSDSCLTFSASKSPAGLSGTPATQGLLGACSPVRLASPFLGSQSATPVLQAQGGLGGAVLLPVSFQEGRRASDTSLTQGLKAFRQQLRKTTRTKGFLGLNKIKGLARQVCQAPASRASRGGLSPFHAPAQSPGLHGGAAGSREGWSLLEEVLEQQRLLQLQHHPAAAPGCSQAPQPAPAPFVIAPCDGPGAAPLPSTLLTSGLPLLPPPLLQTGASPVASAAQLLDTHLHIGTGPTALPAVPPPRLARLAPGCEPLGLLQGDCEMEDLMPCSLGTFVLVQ
The procedure, abridged:
(§1)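 KINOMEscan active site-directed competition binding assay against 468 human kinases with 100 μM S-carvone. Binding expressed as % of control, with 35% of control as the inhibition threshold.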

The target of the next assay is CAMK2G (Homo sapiens, UniProt Q13555). The method, boiled down:
as §1

Another assay has as its target T2, ERK4 (Homo sapiens, UniProt P31152).
T2 construct: gene MAPK4
The method, boiled down:
as §1

Another assay deals with CAMK1 (Homo sapiens, UniProt Q14012). The method, boiled down: as §1
For assay [1], the target named is T3, ABL1(F317I)-phosphorylated (Homo sapiens, UniProt P00519, F317I).
T3 construct: phosphorylated
The method, boiled down: as §1

A further assay addresses T4, CDK11 (Homo sapiens, UniProt Q9BWU1).
T4 construct: gene CDK19
The method, boiled down: as §1

The next assay concerns the target T5, PFTAIRE2 (Homo sapiens, UniProt Q96Q40).
T5 construct: gene CDK15
The procedure, abridged: as §1

Another assay has as its target KIT(A829P) (Homo sapiens, UniProt P10721, A829P). The method, boiled down:
as §1

Assay [2] addresses T6, RSK3(Kin.Dom.2-C-terminal) (Homo sapiens, UniProt Q15349).
T6 construct: gene RPS6KA2; Kin.Dom.2-C-terminal
The procedure, abridged:
as §1

A further assay deals with HUNK (Homo sapiens, UniProt P57058). The method, boiled down:
as §1

A further assay deals with HCK (Homo sapiens, UniProt P08631). The procedure, abridged:
as §1

Another assay has as its target SBK1 (Homo sapiens, UniProt Q52WX2). The procedure, abridged: as §1
A further assay addresses GRK7 (Homo sapiens, UniProt Q8WTQ7). The procedure, abridged:
as §1

A further assay deals with CDK9 (Homo sapiens, UniProt P50750). The method, boiled down:
as §1

A further assay concerns the target TAOK2 (Homo sapiens, UniProt Q9UL54). The procedure, abridged: as §1
The target of another assay is T7, SgK110 (Homo sapiens, UniProt P0C264).
T7 construct: gene SBK3
T7 sequence (P0C264 whole entry): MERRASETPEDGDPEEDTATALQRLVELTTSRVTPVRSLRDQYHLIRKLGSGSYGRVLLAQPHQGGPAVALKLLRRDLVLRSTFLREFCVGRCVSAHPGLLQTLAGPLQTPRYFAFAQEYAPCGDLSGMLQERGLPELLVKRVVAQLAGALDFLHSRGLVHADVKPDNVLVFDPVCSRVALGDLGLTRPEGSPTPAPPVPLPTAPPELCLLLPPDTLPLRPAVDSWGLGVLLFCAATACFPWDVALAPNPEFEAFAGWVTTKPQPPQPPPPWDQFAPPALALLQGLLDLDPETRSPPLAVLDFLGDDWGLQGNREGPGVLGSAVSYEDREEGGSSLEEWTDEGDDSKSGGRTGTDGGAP
The method, boiled down:
as §1

The target in a further assay is EPHB4 (Homo sapiens, UniProt P54760). The procedure, abridged:
as §1

A further assay has as its target DAPK1 (Homo sapiens, UniProt P53355). The method, boiled down: as §1
The target of a further assay is T8, p38-beta (Homo sapiens, UniProt Q15759).
T8 construct: gene MAPK11
T8 sequence (Q15759 whole entry): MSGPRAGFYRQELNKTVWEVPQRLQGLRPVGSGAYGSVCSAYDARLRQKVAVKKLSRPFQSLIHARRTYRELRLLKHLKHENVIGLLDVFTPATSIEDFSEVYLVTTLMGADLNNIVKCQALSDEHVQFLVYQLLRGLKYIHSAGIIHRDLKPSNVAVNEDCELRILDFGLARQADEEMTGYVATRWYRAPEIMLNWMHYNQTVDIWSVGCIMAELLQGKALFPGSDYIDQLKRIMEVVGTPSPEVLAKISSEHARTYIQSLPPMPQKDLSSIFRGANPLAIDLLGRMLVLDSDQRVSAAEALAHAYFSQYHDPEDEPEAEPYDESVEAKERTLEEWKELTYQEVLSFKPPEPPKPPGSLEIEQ
The method, boiled down: as §1

A further assay concerns the target RET(V804M) (Homo sapiens, UniProt P07949, V804M). The method, boiled down:
as §1

The next assay has as its target MARK4 (Homo sapiens, UniProt Q96L34). The procedure, abridged:
as §1

Sequence of DAPK1 (P53355 whole entry): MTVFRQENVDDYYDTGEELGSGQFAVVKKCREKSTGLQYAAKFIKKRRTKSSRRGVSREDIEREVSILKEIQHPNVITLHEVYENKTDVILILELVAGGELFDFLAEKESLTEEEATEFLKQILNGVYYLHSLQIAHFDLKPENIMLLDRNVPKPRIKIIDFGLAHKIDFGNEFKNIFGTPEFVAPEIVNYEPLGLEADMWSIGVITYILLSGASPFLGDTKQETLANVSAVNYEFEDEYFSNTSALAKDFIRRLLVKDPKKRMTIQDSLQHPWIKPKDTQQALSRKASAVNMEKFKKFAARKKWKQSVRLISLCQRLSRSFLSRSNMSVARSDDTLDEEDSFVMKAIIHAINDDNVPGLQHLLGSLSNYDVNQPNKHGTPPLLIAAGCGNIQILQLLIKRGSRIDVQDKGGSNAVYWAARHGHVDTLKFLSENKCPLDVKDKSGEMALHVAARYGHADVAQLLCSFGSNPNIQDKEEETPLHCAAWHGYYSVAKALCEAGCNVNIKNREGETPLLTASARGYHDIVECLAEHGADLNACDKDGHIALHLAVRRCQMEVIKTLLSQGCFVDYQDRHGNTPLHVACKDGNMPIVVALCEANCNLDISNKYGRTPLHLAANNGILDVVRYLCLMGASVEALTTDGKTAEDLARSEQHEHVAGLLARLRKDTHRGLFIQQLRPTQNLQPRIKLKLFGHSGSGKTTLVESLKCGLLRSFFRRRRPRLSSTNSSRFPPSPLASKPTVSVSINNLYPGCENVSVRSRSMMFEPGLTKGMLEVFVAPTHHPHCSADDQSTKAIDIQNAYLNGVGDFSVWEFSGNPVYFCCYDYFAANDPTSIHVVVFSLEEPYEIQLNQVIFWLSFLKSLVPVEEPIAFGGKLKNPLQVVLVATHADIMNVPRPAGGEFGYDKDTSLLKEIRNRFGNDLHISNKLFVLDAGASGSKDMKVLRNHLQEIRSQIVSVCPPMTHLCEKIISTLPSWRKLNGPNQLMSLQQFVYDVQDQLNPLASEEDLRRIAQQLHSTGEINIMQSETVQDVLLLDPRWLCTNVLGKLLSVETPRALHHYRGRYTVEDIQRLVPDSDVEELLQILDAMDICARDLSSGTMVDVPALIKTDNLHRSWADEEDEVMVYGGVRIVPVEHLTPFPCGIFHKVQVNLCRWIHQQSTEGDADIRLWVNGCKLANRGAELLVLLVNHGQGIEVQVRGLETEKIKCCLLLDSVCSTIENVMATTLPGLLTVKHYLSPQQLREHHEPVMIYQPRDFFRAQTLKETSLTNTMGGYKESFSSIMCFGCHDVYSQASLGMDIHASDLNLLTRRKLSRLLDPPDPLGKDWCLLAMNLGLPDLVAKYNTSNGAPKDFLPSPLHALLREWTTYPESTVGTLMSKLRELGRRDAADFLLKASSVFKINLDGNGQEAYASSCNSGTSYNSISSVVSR
Sequence of SBK1 (Q52WX2 whole entry): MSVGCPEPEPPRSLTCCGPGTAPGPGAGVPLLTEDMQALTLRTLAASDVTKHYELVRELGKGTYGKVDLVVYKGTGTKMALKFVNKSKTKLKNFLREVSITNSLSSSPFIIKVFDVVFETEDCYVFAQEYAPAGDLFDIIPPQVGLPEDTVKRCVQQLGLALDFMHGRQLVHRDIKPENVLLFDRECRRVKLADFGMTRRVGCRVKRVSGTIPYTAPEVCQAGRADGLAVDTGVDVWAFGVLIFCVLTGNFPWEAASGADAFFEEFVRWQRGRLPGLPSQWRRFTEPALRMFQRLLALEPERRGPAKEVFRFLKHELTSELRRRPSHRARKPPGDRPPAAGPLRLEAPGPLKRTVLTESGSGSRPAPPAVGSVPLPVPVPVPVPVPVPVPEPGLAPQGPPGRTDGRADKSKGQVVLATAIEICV
T6 sequence (Q15349 whole entry): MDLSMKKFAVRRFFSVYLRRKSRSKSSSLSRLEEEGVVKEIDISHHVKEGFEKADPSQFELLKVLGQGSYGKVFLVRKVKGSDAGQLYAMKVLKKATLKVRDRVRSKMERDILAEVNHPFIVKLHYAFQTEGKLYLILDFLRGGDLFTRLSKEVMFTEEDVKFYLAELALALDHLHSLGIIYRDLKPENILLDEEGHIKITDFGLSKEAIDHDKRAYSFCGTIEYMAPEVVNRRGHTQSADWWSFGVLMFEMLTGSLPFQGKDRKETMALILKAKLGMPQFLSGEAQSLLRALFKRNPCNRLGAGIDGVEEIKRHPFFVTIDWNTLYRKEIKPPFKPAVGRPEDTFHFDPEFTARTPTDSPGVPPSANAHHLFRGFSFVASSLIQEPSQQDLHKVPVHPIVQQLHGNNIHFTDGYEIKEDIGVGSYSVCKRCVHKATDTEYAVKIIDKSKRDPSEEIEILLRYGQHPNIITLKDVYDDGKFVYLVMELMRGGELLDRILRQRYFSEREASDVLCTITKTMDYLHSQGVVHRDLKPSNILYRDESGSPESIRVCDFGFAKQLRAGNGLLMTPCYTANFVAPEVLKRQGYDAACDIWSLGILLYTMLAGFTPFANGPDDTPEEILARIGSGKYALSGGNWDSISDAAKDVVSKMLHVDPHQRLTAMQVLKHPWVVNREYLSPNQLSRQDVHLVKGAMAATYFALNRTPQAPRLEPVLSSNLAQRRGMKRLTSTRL
T2 sequence (P31152 whole entry): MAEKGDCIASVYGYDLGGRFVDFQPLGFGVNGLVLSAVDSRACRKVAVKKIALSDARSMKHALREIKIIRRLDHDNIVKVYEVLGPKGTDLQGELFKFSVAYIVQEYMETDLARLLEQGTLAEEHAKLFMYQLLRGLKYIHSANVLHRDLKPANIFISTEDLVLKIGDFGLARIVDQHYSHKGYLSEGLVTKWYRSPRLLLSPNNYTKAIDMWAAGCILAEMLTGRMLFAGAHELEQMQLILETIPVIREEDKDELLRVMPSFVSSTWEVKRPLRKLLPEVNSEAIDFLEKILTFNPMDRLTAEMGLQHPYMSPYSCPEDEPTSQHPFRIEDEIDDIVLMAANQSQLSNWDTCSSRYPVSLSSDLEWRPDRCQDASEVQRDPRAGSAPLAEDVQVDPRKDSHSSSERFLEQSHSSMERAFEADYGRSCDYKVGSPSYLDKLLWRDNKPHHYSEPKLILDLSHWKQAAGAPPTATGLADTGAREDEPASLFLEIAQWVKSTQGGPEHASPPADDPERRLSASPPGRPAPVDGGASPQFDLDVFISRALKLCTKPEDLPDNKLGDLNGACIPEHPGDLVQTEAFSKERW
Sequence of CDK9 (P50750 whole entry): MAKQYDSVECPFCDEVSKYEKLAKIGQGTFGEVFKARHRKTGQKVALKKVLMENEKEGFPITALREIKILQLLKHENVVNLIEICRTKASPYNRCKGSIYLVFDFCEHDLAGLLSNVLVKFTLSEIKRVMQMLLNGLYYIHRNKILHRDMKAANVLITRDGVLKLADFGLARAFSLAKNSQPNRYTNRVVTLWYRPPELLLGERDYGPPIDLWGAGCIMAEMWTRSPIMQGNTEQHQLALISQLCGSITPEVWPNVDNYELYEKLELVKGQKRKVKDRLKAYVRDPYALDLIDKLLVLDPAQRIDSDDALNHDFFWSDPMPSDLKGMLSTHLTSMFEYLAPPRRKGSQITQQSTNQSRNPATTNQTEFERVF

For `C=C(C)[C@H]1CC=C(C)C(=O)C1` [S-carvone], the remaining binding at 100 µM was 67% at SIK; 84% on CAMK2G; 89% on ERK4; 75% on CAMK1; 97% in assay [1]; 98% on CDK11. Besides, the remaining binding at 100 µM was 87% on PFTAIRE2; 84% at KIT(A829P); 63% in assay [2]; 63% on HUNK; 76% at HCK; 100% on SBK1. For the same compound, the remaining binding at 100 µM came to 75% on GRK7; 85% on CDK9; 78% on TAOK2; 93% at SgK110; 68% at EPHB4; 65% at DAPK1. Moreover, the remaining binding at 100 µM at p38-beta worked out at 98%; on RET(V804M), 96%; at MARK4, 73%.
